Measurements as given in patent US20100216703A1, “Inhibitors of PDE4 and Methods of Use” (THE REGENTS OF THE UNIVERSITY OF CALIFORNIA, priority 2006, published 2010).
“Also recorded” adds a separate entry of the source.

Legend:
NIH3T3p75NTR cells [1] = experiment: Quantification of tPA activity; assay type: cell-based; details: 10 μM forskolin 16 h; 200 nM KT5720; IBMX; rolipram
Experimental: (§1) Quantification of tPA and uPA activity in SC and fibroblast in lysates and supernatants was performed according to the directions of the activity assay kits from American Diagnostica and Chemicon, respectively. To elevate cAMP cells were treated either with 2 mM db-cAMP (Sigma-Aldrich) or with 10 μM forskolin (Sigma-Aldrich) for 16 h. To block PKA activity, cells were treated with 200 nM KT5720 (Calbiochem).

NIH3T3p75NTR cells [2] = experiment: Competitive binding cAMP ELISA; assay type: cell-based; details: 16 h; PTX 100 ng/ml, IBMX 500 μM, PDE1 inh. 18.7 μM, EHNA 80 μM, trequinsin 100 nM, rolipram 10 μM, PDE5 inh. 23 μM
Experimental: (§2) […] fibroblasts or 500,000 SCs were lysed in 0.1 N HCl solution and cAMP was measured using a competitive binding cAMP ELISA (Assay Designs). Cells were treated with 100 ng/ml PTX for 16 h. […] Cells were treated with forskolin in the presence of the inhibitors for 1 h. […] For the qualitative and quantitative PKA assay (Promega), cells were treated with 10 μM forskolin for 30 min, lysed in 1% NP-40 buffer with 150 mM NaCl, 50 mM Tris, and 1 mM EGTA, and protein concentration was determined using the Bradford Assay (Bio-Rad Laboratories). 1 μg was loaded into the PKA assay reaction mix according to the manufacturer's protocol (Promega).

[3] = system: LPS-induced lung fibrosis; experiment: LPS-induced lung fibrosis / acute lung injury; assay type: in vivo, mouse
Experimental: Animals, sciatic nerve crush, and induction of lung fibrosis p75NTR−/− mice (Lee et al., 1992) and tPA−/− mice (Carmeliet et al., 1994) were in C57B1/6 background and purchased from The Jackson Laboratory. Double p75NTR−/−tPA−/− mice were generated by crossing p75NTR−/− mice with tPA−/− mice. C57B1/6J mice were used as controls. Sciatic nerve crush was performed as described previously (Akassoglou et al., 2000). Lung fibrosis was induced as described previously (Chen et al., 2004). For the rolipram treatments, mice were administered 5 mg/kg rolipram (Calbiochem) before the LPS injection as described previously (Miotla et al., 1998). Mice were killed 4.5 h after LPS or saline administration. For rolipram treatment after sciatic nerve injury, mice were injected with rolipram (1 mg/kg) once daily for 8 d until tissue was harvested and processed for immunostaining. Immunohistochemistry was performed as described in Akassoglou et al. (2002). Primary antibodies were sheep anti-human fibrin(ogen) (1:200; US Biologicals), rabbit anti-human tPA ( 1/300; Molecular Innovations), rabbit anti-p75NTR clone 9651, (1:1,000), goat anti-p75NTR ( 1/200; Santa Cruz Biotechnology, Inc.), rabbit anti-mouse PAI-1 (1:500; a gift from David Loskutoff, Scripps Research Institute, La Jolla, Calif.), and mouse anti-S100 (1:200; Neomarkers). For immunofluorescence, secondary antibodies were anti-rabbit FITC and anti-goat Cy3 (1:200; Jackson Immunochemicals). Images were acquired with an Axioplan II epifluorescence microscope (Carl Zeiss Microlmaging, Inc.) using dry Plan-Neofluar lenses using 10×0.3 NA, 20×0.5 NA, or 40×0.75 NA objectives equipped with Axiocam HRc digital camera and the Axiovision image analysis system. Immunoblot was performed as described previously (Akassoglou et al., 2002). Antibodies used were rabbit anti-p75NTR clones 9992 and 9651 (1:5,000), mouse anti-fibrin (1:500; Accurate Chemical & Scientific Corp.), rabbit anti-myosin (1:1,000; Sigma-Aldrich), rabbit anti-GAPDH (1:5,000; Abcam) and rabbit anti-PAI-1 (1:5,000; a gift of David Loskutoff). Quantification was performed on the Scion NIH Imaging Software. Fibrin precipitation and quantification from lung tissues was performed exactly as described previously (Ling et al., 2004). RT-PCR was performed as described previously (Akassoglou et al., 2002). Primers for tPA, uPA, and PAI-1 genes were used as described previously (Yamamoto and Loskutoff, 1996). Real-time PCR was performed using the Opticon DNA Engine 2 (MJ Research) and the Quantitect SYBR Green PCR kit (QIAGEN). Results were analyzed with Opticon 2 software using the comparative Ct method as described previously (Livak and Schmittgen, 2001). Data were expressed as ΔΔCt for the tPA gene normalized against GAPDH.

[4] = system: sciatic nerve crush injury; experiment: Sciatic nerve crush injury; assay type: in vivo, mouse; details: wt nerves 8 days after crush; rolipram 1 mg/kg once daily for 8 d
Experimental: Animals, sciatic nerve crush, and induction of lung fibrosis p75NTR−/− mice (Lee et al., 1992) and tPA−/− mice (Carmeliet et al., 1994) were in C57B1/6 background and purchased from The Jackson Laboratory. Double p75NTR−/−tPA−/− mice were generated by crossing p75NTR−/− mice with tPA−/− mice. C57B1/6J mice were used as controls. Sciatic nerve crush was performed as described previously (Akassoglou et al., 2000). Lung fibrosis was induced as described previously (Chen et al., 2004). For the rolipram treatments, mice were administered 5 mg/kg rolipram (Calbiochem) before the LPS injection as described previously (Miotla et al., 1998). Mice were killed 4.5 h after LPS or saline administration. For rolipram treatment after sciatic nerve injury, mice were injected with rolipram (1 mg/kg) once daily for 8 d until tissue was harvested and processed for immunostaining. Immunohistochemistry was performed as described in Akassoglou et al. (2002). Primary antibodies were sheep anti-human fibrin(ogen) (1:200; US Biologicals), rabbit anti-human tPA ( 1/300; Molecular Innovations), rabbit anti-p75NTR clone 9651, (1:1,000), goat anti-p75NTR ( 1/200; Santa Cruz Biotechnology, Inc.), rabbit anti-mouse PAI-1 (1:500; a gift from David Loskutoff, Scripps Research Institute, La Jolla, Calif.), and mouse anti-S100 (1:200; Neomarkers). […]

CGNs = experiment: Intracellular cAMP in cerebellar granule neurons; assay type: cell-based, mouse
Text: Murine SCs were isolated as described previously (Syroid et al., 2000). NIH3T3 or HEK293 cells were cotransfected either with p75NTR FL, ICD or deletion constructs, and PDE4A5 cDNAs using Lipofectamine 2000 (Invitrogen) as described in the Results section. CGNs were isolated from P10 animals (Yamashita and Tohyama, 2003). CGNs were lysed immediately for co-IP, without plating. siRNA directed against p75NTR (Dharmacon; SMART Pool reagent, Cat. M-080041-00; Cat. M-009340) was transfected into SCs and NIH3T3p75NTR cells using Dharmafect (Dharmacon).
as §2

PDE4 = details: cited from earlier work
spinal cord injury = details: Nikulina et al., 2004, Pearse et al.; cited from earlier work
tPA = biological target: T1, tPA (Mus musculus, UniProt P11214); experiment: In situ zymography of crushed sciatic nerve; assay type: biochemical; details: injured sciatic nerve of p75NTR−/− mice, in the presence of plasminogen
T1 construct: from tissue; host or cells: crushed sciatic nerve of p75NTR-/- mice (C57Bl/6 background)
T1 sequence (P11214 33-559): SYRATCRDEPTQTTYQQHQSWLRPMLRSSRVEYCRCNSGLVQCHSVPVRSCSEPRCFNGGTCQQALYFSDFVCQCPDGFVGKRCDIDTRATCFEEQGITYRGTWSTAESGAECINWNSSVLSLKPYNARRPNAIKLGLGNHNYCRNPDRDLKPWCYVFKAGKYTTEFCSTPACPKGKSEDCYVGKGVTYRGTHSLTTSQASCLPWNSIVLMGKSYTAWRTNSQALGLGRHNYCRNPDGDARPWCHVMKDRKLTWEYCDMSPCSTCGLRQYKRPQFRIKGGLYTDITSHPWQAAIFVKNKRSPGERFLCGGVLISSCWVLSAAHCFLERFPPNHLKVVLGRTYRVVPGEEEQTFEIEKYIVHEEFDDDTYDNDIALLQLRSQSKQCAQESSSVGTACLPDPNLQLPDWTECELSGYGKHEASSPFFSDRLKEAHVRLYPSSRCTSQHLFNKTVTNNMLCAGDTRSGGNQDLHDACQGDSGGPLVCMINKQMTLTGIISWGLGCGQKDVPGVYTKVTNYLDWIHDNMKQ
Experimental: In situ zymographies were performed as described previously (Akassoglou et al., 2000). Quantification of in situ zymographies was performed by measuring the area of the lytic zone surrounding each nerve, and dividing that value by the area of the nerve. Images were collected after 8 h of incubation for the sciatic nerve and 4 h of incubation for the lung. For cell zymographies, cultures were washed four times with PBS/BSA and overlaid with 200 μl of Dulbecco's […] medium containing 1% LMP agarose, 2.5% boiled nonfat milk, and 25 μg/ml human plasminogen. The overlay was allowed to harden, and plates were incubated in a cell culture incubator at 37° C. Pictures of lytic zones were taken using an inverted microscope under dark field (Carl Zeiss Microlmaging, Inc.).

NIH3T3 cells [5] = experiment: Quantification of tPA activity; assay type: cell-based; details: 10 μM forskolin 16 h; 200 nM KT5720; IBMX
Experimental: as §1

NIH3T3 cells [6] = experiment: RT-PCR / real-time PCR of tPA and PAI-1 RNA; assay type: cell-based
Experimental: RT-PCR was performed as described previously (Akassoglou et al., 2002). Primers for tPA, uPA, and PAI-1 genes were used as described previously (Yamamoto and Loskutoff, 1996). Real-time PCR was performed using the Opticon DNA Engine 2 (MJ Research) and the Quantitect SYBR Green PCR kit (QIAGEN). Results were analyzed with Opticon 2 software using the comparative Ct method as described previously (Livak and Schmittgen, 2001). Data were expressed as ΔΔCt for the tPA gene normalized against GAPDH.

NIH3T3 cells [7] = experiment: Fibrin degradation assay on 3D fibrin gel; assay type: cell-based
Experimental: (§3) Coating with fibrin was prepared as described previously (Lansink et al., 1998). To quantitate fibrin degradation, the supernatant was aspirated and the remaining gel was weighed using an analytical balance. Decrease of gel weight corresponded to increased fibrin gel degradation.

NIH3T3p75NTR cells [8] = experiment: Fibrin degradation assay on 3D fibrin gel; assay type: cell-based; details: 2 mM db-cAMP
Experimental: as §1, §3

Primary CGNs = experiment: Myelin inhibition of neurite outgrowth; assay type: cell-based, mouse; details: 24 hrs, myelin 1 μg/well, poly-D-lysine

## COc1ccc(C2CNC(=O)C2)cc1OC1CCCC1 (stereo not shown) [rolipram]
NIH3T3p75NTR cells [1]
  tPA activity in NIH3T3p75NTR cells: increase of tPA levels
NIH3T3p75NTR cells [2]
  intracellular cAMP levels in NIH3T3p75NTR cells: increase intracellular levels of cAMP; also recorded: increase levels of cAMP in NIH3T3p75NTR cells to the levels of NIH3T3 cells; also recorded: significantly increases cAMP levels
[3]; 5 mg/kg rolipram before LPS, vs LPS alone
  fibrin deposition in the lung: decreased in the lung; also recorded: reduces fibrin deposition; also recorded: decreases fibrin deposition
[3]; 5 mg/kg rolipram before LPS, killed 4.5 h after LPS
  decrease in fibrin, rolipram vs. control treated wt lungs: 34%
[3]; LPS + rolipram
  PAI-1 in the lung after LPS (quantitative PCR of transcripts): reduction of LPS-induced PAI-1 upregulation; also recorded: decreases PAI-1
[3]; no LPS
  PAI-1 transcripts in the lung, rolipram treatment alone: no effect
[4]
  fibrin deposition in the sciatic nerve: decreased levels of fibrin deposition; also recorded: statistically significant reduction of fibrin deposition; also recorded: reduces fibrin deposition; also recorded: decreases fibrin deposition
CGNs; p75NTR−/− cells
  intracellular cAMP in p75NTR−/− CGNs: no significant increase
CGNs; wild-type cells
  intracellular cAMP in wild-type CGNs: four-fold increase in intracellular cAMP
PDE4; background statement
  PDE4 isoform selectivity: […]
PDE4
  IC50: […]
Spinal cord injury
  axonal regeneration and functional recovery: […]

## Cl.Cl.N=C(N)c1ccc(C=C2CCCCC(=Cc3ccc(C(=N)N)cc3)C2=O)cc1 [tPASTOP]
tPA
  proteolytic activity (in situ zymography): blocks proteolytic activity

## CCCCCCOC(=O)[C@]1(O)C[C@@H]2O[C@@]1(C)n1c3ccccc3c3c4c(c5c6ccccc6n2c5c31)C(=O)NC4 [KT5720]
NIH3T3 cells [5]
  tPA activity in NIH3T3 cells: decrease of tPA activity; also recorded: decreases tPA activity
NIH3T3p75NTR cells [1]
  tPA activity in NIH3T3p75NTR cells: decrease of tPA activity
NIH3T3 cells [6]
  tPA mRNA in NIH3T3 cells: decreases tPA transcript; also recorded: decreases tPA RNA

## Aprotinin
NIH3T3 cells [7]
  fibrin degradation by NIH3T3 cells: completely inhibits fibrin degradation

## CCCC(=O)Nc1ncnc2c1ncn2[C@@H]1O[C@@H]2COP(=O)(O)O[C@H]2[C@H]1OC(=O)CCC [db-cAMP, dibutyryl-cAMP]
NIH3T3p75NTR cells [8]
  fibrinolysis in NIH3T3p75NTR cells: induces fibrinolysis; also recorded: overcomes the inhibitory effect of p75NTR

## YGRKKRRQRRRSPLDSQASPGLVLHAGATTSQRRES (listed as Homo sapiens) [peptide 25]
Primary CGNs
  myelin inhibition of neurite outgrowth: did not overcome myelin inhibition of neurite outgrowth
